Measured values as given in patent US20200385396A1, “Compond for treatment or prevention of obesity or diseases related to obesity, and application thereof” (SHANGHAI INSTITUTES FOR BIOLOGICAL SCIENCES, CHINESE …, priority 2017, published 2020).

Experiments:
NUCB2 protein = biological target: T1, NUCB2 protein (Mus musculus, UniProt P81117); assay: Competitive binding experiment: small molecules compete with Bio78 (HLY179) for NUCB2; conditions: competitor final concentration 100 μM; HLY179 20 μM
T1 construct: Immediately the mouse full-length NUCB2 protein expressed in E. coli was purified; His tag (inferred from pET-28A vector, Ni-NTA purification and His antibody); made in house; host or cells: E. coli BL21-CodonPlus (DE3)
T1 sequence (P81117 25-420): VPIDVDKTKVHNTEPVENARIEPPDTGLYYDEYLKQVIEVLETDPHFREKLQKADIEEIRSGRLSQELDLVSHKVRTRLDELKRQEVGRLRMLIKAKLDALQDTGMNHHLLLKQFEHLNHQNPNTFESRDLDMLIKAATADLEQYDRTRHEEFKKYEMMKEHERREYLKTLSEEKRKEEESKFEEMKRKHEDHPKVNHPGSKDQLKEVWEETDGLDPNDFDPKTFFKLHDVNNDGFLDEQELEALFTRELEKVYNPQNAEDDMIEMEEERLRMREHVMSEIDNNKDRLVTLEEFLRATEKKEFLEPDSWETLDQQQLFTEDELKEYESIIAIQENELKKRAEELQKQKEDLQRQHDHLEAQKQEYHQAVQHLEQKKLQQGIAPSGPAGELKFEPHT
Protocol: When doing the combining experiments, (1) pre-treating Streptavidin-Agarose, washing Streptavidin-Agarose Beads with IP buffer, and spinning it on the rotor for 10 minutes. (2) Re-binding small molecules HLY179 (20 μM) and Streptavidin-Agarose Beads, spinning it in a refrigeration house at 4° C. for 1-2 hours. (3) When the previous step was performed for about 1 hour, the protein was pre-cleared at the same time, and the protein and the washed Streptavidin-Agarose were rotated in a refrigeration house at 4° C. for 30 minutes. (4) the Streptavidin-Agarose Beads binded with HLY179 was centrifuged, the supernatant was removed, washed again with 600 μL of IP buffer (rotated at 4° C. for 3 minutes), centrifuged, and the supernatant was removed carefully. (5) the pre-cleard protein was added and rotated in a refrigeration house at 4° C. for 2 hours. Washd twice with IP buffer 800 μL, 2 minutes each time (all rotated in a refrigeration house at 4° C.). After the last wash, the supernatant was removed, 40 μL of 2*loading was added and cooked for 10 minutes, stored at −20° C. When doing competitive binding experiments, in the third step while pre-treating the protein adding different small molecule compounds, the final concentration was 100 μM, and the rest was the same. Western Blot: Preparing the appropriate concentration of SDS-PAGE gel, adding protein sample for electrophoretic separation. […]

OB/OB obese model mice = assay: Weight loss in OB/OB obese model mice; type: in vivo, mouse
Description: All animal experiments were approved by the Animal Management Committee of SIBCB. C57BL/6 mice were purchased from Lingchang company (normal mice and high-fat diet-induced obese mice), C57/BLJ6 (NUCB2 gene knockout mice for breeding and background purification) were purchased from Lingchang company, OB/OB mice were purchased from Slack company. A high-fat diet (45% kcal, D12451) for inducing obese mice was purchased from Research Diets. Starting from the sixth week, it was fed with high-fat diet for 14-25 weeks. The rest of the mice used normal diet (13.5% kcal). The mice were housed in the SPF grade animal house of SIBCB. The lights were turned off for 12 hours (19: 00-07: 00), and the lights were turned on for 12 hours (07: 00-19: 00).
Mice were intraperitoneally injected with DMSO or HLY72 (dissolved in DMSO) 25 μL within 2 hours before turning off the lamp. During the intragastric experiment, the high concentration of HLY72 dissolved in DMSO was dissolved in 10% cyclodextrin, and the total volume was 100 μL Volume by gavage, so that the final concentration of DMSO was less than 10%. The diet was weighed at the 3rd hour, the 6th hour, the 12th hour, and the 24th hour respectively after the lights out. The corresponding mouse body weight was also weighed at the same time before the daily administration. The fat content of mice was measured with the magnetic resonance fat content measuring instrument of the animal platform in SIBCB.
After obtaining the above results, we now begin to use the small molecule HLY72 in obese mouse models. We first chose the obese mouse model (OB/OB) caused by Leptin mutation. An important reason for the persistence of obesity is the resistance and tolerance to regulatory factors such as Insulin and Leptin. And we are very pleased with the fact that NUCB2 can reduce the food intake of Leptin receptor mutant Zucker rats. In this regard, we can reasonably speculate that the small molecule HLY72 should also have an effect on OB/OB mice. Sure enough, the injection of HLY72 has a significant weight loss effect on OB/OB mice.

[1] = OB/OB mice, 20 mg/kg injection, 7 consecutive days

C=Cc1cccc2c1N(C)Cc1cc3c(cc1-2)OCO3 [HLY72]
compete with Bio78 for binding to NUCB2 (NUCB2 protein): can also compete
urine of mice (OB/OB obese model mice; OB/OB mice injected with HLY72): significantly reduced
daily food intake compared with the DMSO group (OB/OB obese model mice; OB/OB mice, 20 mg/kg injection): significantly reduced
body weight after treatment (OB/OB obese model mice; [1]): 37.73 ± 0.87 g
reduction in total body weight (OB/OB obese model mice; [1]): 10.15%±0.87%
body weight before treatment (OB/OB obese model mice; OB/OB mice, 20 mg/kg injection, start): 42.02 ± 1.01 g
